Values of other authors in patent US20050090518A1 (Nastech Pharmaceutical Company Inc., priority 2003, published 2005).

Conditions: intranasal administration

CN1CCc2cccc3c2[C@H]1Cc1ccc(O)c(O)c1-3 [Apomorphine]
abolition of "off state" events: 95% | duration of efficacy: less than one | onset of action: 10 min
